Data from ChEMBL document CHEMBL4622850, “Discovery and optimization of new oxadiazole substituted thiazole RORγt inverse agonists through a bioisosteric amide replacement approach” (Bioorg Med Chem Lett, 2020).
In brackets after ≈: the same amount, converted by molar mass.

Experiments:
[1] = molecular target: T1, Nuclear receptor subfamily 1 group I member 2 (Homo sapiens, UniProt O75469); test: Activation of PXR (unknown origin) at 5 uM; assay type: ADME
T1 sequence (O75469 whole entry): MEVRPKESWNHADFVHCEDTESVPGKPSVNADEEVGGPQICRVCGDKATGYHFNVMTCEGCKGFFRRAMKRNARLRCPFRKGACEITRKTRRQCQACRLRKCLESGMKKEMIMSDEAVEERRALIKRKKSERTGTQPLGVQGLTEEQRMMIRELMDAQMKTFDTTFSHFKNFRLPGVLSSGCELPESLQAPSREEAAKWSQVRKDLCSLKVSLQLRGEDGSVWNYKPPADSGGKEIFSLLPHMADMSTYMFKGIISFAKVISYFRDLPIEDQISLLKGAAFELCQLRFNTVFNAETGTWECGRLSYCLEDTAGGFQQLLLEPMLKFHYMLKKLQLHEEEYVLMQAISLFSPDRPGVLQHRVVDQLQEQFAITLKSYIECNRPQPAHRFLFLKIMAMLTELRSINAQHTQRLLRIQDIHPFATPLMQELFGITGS

[2] = Solubility of compound by pH 2; assay type: physicochemical; conditions: buffer
[3] = Solubility of compound by pH 7; assay type: physicochemical; conditions: buffer
[4] = Cmax in rat at 5 mg/kg, po; assay type: ADME, organism-based; set-up: dose 5 mg/kg, route oral; conditions: in vivo
[5] = AUC in rat at 5 mg/kg, po; assay type: ADME, organism-based; conditions: in vivo
[6] = Clearance in rat at 1 mg/kg, iv; assay type: ADME, organism-based; conditions: in vivo
[7] = Volume of distribution in rat at 1 mg/kg, iv; assay type: ADME, organism-based; conditions: in vivo
[8] = Half life in rat at 1 mg/kg, iv; assay type: ADME, organism-based; conditions: in vivo
[9] = Oral bioavailability in rat at 1 mg/kg; assay type: ADME, organism-based; conditions: in vivo
[10] = molecular target: T2, Nuclear receptor ROR-gamma (Mus musculus, UniProt P51450); test: Inverse agonist activity at RORgammat in mouse whole blood assessed as reduction in IL-17a production; assay type: tissue-based
T2 sequence (P51450 whole entry): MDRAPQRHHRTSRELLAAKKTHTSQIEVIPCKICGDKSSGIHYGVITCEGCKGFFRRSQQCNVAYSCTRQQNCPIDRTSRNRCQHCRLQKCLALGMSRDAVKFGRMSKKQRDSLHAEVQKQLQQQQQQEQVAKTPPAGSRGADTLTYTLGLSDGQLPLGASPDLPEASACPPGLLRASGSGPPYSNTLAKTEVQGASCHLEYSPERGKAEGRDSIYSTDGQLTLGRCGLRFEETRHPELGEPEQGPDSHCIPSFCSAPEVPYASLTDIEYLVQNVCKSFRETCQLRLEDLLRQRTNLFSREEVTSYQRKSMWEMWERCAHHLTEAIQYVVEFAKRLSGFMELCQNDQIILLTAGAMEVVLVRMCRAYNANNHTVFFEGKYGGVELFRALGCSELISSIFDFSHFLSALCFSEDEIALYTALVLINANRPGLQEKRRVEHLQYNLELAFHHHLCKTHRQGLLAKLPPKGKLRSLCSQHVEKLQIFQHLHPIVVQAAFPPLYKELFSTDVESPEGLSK

Cytochrome P450 2C9 = Cytochrome P450 2C9 (Homo sapiens, UniProt P11712); test: Inhibition of CYP2C9 (unknown origin); assay type: ADME
[11] = Metabolic stability in human liver microsomes assessed as half life; assay type: ADME, Microsome
[12] = Metabolic stability in rat liver microsomes assessed as half life; assay type: ADME, Microsome
[13] = Protein binding in human plasma; assay type: ADME, cell-free; conditions: read-out: PPB (converted)
[14] = Protein binding in mouse plasma; assay type: ADME, cell-free; conditions: read-out: PPB (converted)
Cytochrome P450 2C8 = molecular target: T3, Cytochrome P450 2C8 (Homo sapiens, UniProt P10632); test: Inhibition of CYP2C8 (unknown origin); assay type: ADME
T3 sequence (P10632 whole entry): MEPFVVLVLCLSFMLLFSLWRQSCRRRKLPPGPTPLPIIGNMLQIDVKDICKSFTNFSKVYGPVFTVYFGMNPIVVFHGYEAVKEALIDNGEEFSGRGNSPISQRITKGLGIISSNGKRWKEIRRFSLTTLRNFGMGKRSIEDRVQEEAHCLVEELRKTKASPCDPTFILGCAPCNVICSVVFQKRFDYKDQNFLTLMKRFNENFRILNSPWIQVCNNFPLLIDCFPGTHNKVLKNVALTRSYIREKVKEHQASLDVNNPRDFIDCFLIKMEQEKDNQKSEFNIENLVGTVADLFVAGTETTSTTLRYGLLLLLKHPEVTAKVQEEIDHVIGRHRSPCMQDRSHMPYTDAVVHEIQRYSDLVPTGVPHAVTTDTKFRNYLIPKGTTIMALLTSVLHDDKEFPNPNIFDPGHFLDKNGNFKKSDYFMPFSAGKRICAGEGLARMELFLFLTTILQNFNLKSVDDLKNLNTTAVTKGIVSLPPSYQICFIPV

[15] = molecular target: T1, Nuclear receptor subfamily 1 group I member 2; test: Activation of PXR (unknown origin) at 1 uM; assay type: ADME
CYP3A4 [16] = molecular target: T4, CYP3A4 (Homo sapiens, UniProt P08684); test: Inhibition of CYP3A4 (unknown origin) at 1 uM; assay type: ADME
CYP3A4 [17] = molecular target: T4, CYP3A4; test: Inhibition of CYP3A4 (unknown origin) at 10 uM; assay type: ADME
[18] = Plasma concentration in mouse at 30 mg/kg, po measured after 0.5 hrs; assay type: ADME, organism-based
[19] = Plasma concentration in mouse at 30 mg/kg, po measured after 1 hr; assay type: ADME, organism-based
[20] = Plasma concentration in mouse at 30 mg/kg, po measured after 2 hrs; assay type: ADME, organism-based
[21] = Plasma concentration in mouse at 30 mg/kg, po measured after 4 hrs; assay type: ADME, organism-based
[22] = Plasma concentration in mouse at 30 mg/kg, po measured after 7 hrs; assay type: ADME, organism-based
[23] = Plasma concentration in mouse at 30 mg/kg, po measured after 24 hrs; assay type: ADME, organism-based
[24] = molecular target: T5, Nuclear receptor ROR-gamma (Mus musculus) (UniProt P51450); test: In vivo inhibition of RORgammat in mouse assessed as reduction in IL-17a production at 30 mg/kg, po measured after 0.5 hrs relative to control; assay type: functional, organism-based
T5 sequence (whole entry): T2 sequence (P51450 whole entry)

[25] = molecular target: T5, Nuclear receptor ROR-gamma (Mus musculus); test: In vivo inhibition of RORgammat in mouse assessed as reduction in IL-17a production at 30 mg/kg, po measured after 1 hr relative to control; assay type: functional, organism-based
[26] = molecular target: T5, Nuclear receptor ROR-gamma (Mus musculus); test: In vivo inhibition of RORgammat in mouse assessed as reduction in IL-17a production at 30 mg/kg, po measured after 2 hrs relative to control; assay type: functional, organism-based
[27] = molecular target: T5, Nuclear receptor ROR-gamma (Mus musculus); test: In vivo inhibition of RORgammat in mouse assessed as reduction in IL-17a production at 30 mg/kg, po measured after 4 hrs relative to control; assay type: functional, organism-based
[28] = molecular target: T5, Nuclear receptor ROR-gamma (Mus musculus); test: In vivo inhibition of RORgammat in mouse assessed as reduction in IL-17a production at 30 mg/kg, po measured after 7 hrs relative to control; assay type: functional, organism-based
[29] = molecular target: T5, Nuclear receptor ROR-gamma (Mus musculus); test: In vivo inhibition of RORgammat in mouse assessed as reduction in IL-17a production at 30 mg/kg, po measured after 24 hrs relative to control; assay type: functional, organism-based
[30] = Cmax in rat at 300 mg/kg, po measured on day 1; assay type: ADME, organism-based; set-up: dose 300 mg/kg, route oral; conditions: in vivo
[31] = AUC in rat at 300 mg/kg, po measured on day 1; assay type: ADME, organism-based; conditions: in vivo
[32] = Cmax in rat at 300 mg/kg, po measured on day 5; assay type: ADME, organism-based; set-up: dose 300 mg/kg, route oral; conditions: in vivo
[33] = AUC in rat at 300 mg/kg, po measured on day 5; assay type: ADME, organism-based; conditions: in vivo
Cytochrome P450 2C19 = Cytochrome P450 2C19 (Homo sapiens, UniProt P33261); test: Inhibition of CYP2C19 (unknown origin); assay type: ADME
[34] = Protein binding in rat plasma; assay type: ADME, cell-free; conditions: read-out: PPB (converted)
[35] = Plasma concentration in mouse at 3 mg/kg, po measured after 1 hr; assay type: ADME, organism-based
[36] = molecular target: T5, Nuclear receptor ROR-gamma (Mus musculus); test: In vivo inhibition of RORgammat in mouse assessed as reduction in IL-17a production at 3 mg/kg, po measured after 1 hr relative to control; assay type: functional, organism-based
[37] = Cmax in rat at 1000 mg/kg, po measured on day 1; assay type: ADME, organism-based; set-up: dose 1000 mg/kg, route oral; conditions: in vivo
[38] = AUC in rat at 1000 mg/kg, po measured on day 1; assay type: ADME, organism-based; conditions: in vivo
[39] = Cmax in rat at 1000 mg/kg, po measured on day 5; assay type: ADME, organism-based; set-up: dose 1000 mg/kg, route oral; conditions: in vivo
[40] = AUC in rat at 1000 mg/kg, po measured on day 5; assay type: ADME, organism-based; conditions: in vivo

T4 sequence (P08684 whole entry): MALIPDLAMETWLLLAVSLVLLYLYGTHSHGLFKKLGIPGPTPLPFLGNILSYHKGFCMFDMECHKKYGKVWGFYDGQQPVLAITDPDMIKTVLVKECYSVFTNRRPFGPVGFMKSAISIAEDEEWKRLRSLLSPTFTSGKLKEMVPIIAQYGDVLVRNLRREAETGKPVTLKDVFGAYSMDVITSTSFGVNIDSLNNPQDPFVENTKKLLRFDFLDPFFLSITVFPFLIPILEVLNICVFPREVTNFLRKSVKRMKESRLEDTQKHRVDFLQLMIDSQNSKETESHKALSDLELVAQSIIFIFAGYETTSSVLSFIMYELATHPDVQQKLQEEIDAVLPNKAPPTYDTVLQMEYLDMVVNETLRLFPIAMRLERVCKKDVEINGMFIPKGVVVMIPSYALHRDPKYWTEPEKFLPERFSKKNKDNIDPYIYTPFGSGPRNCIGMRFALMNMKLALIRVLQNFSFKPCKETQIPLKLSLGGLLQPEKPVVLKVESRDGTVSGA
Sequence of Cytochrome P450 2C9 (P11712 whole entry): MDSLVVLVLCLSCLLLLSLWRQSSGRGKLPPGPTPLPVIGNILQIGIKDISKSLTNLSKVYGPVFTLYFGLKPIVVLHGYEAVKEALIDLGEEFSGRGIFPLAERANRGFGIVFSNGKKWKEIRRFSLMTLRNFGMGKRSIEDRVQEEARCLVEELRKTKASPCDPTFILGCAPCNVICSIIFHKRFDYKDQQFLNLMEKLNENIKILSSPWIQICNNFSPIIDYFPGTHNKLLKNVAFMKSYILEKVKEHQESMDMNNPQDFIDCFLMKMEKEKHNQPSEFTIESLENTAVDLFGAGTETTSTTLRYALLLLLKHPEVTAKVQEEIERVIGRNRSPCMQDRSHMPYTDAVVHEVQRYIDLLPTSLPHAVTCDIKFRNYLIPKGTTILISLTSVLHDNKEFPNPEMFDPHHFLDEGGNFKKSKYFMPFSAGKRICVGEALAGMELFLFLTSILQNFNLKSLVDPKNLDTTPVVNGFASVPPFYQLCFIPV
Sequence of Cytochrome P450 2C19 (P33261 whole entry): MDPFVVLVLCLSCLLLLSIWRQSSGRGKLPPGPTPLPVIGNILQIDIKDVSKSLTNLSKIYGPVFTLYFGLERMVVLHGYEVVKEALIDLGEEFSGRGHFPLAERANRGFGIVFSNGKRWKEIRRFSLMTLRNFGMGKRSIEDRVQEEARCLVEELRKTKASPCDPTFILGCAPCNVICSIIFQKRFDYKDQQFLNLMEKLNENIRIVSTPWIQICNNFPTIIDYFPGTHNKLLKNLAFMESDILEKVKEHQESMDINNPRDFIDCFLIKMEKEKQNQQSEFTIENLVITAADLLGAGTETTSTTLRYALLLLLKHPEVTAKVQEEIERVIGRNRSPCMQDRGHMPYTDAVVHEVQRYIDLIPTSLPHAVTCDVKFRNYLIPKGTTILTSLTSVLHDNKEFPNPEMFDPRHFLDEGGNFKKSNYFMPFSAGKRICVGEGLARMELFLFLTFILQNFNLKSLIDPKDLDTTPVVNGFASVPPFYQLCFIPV

SMILES | solubility [2] [µM] | solubility [3] [µM] | Cmax [4] [nM] | AUC [5] [ng·h/mL] | clearance [6] [mL/min/kg] | Vd [7] [L/kg] | half-life [8] [min] | bioavailability [9] [%] | IC50 [10] [nM] | half-life [11] [min] | half-life [12] [min] | fraction unbound [13] | fraction unbound [14] | Activity [15] [%] | inhibition at 1 µM (CYP3A4 [16]) [%] | inhibition at 10 µM (CYP3A4 [17]) [%] | concentration at 1 h [19] [µM] | inhibition [25] [%] | further results
CC[C@H](NS(=O)(=O)c1ccc(-c2sc(CC(C)(C)C(=O)O)nc2CC2CCC2)c(C(F)F)c1F)C(F)(F)F | < 4 | 355 (≈ 208 µg/mL) | 3800 | 32700 | 2.9 | 1.7 | 456 | 112 | 2500 | > 180 | > 180 | 0.003 | 0.002 | 8.9 | -1 | 3.4 | 52.1 | 68 | Activity [1]: 21%; IC50 (Cytochrome P450 2C9): 6.3 µM; IC50 (Cytochrome P450 2C8): 1800 nM; concentration at 0.5 h [18]: 61.4 µM; concentration at 2 h [20]: 46.4 µM; concentration at 4 h [21]: 39.7 µM; concentration at 7 h [22]: 43.1 µM; concentration at 24 h [23]: 2200 nM; inhibition [24]: 73%; inhibition [26]: 75%; inhibition [27]: 61%; inhibition [28]: 46%; inhibition [29]: 39%; Cmax [30]: 303 µg/mL; AUC [31]: 4710 µg·h/mL; Cmax [32]: 151 µg/mL; AUC [33]: 1790 µg·h/mL
C[C@H](NS(=O)(=O)c1ccc(-c2sc(-c3nnc(C(C)(C)O)o3)nc2C(=O)N2CCC(F)(F)CC2)c(Cl)c1Cl)C(F)(F)F | 18 (≈ 12.2 µg/mL) | 35 (≈ 23.7 µg/mL) | 230 | 1570 | 25 | 7.7 | 258 | 47 | 196 | > 180 | 148 | 0.077 | 0.058 | 8.5 | 8.1 | 26 | 10.2 | 84 | IC50 (Cytochrome P450 2C19): 6.7 µM; fraction unbound [34]: 0.095; concentration at 1 h [35]: 490 nM; inhibition [36]: 69%; Cmax [37]: 24500 ng/mL; AUC [38]: 274 µg·h/mL; Cmax [39]: 3160 ng/mL; AUC [40]: 51000 ng·h/mL
